SMILES strings stand for the structures. Positions of bridges follow the written chain, without caps; N, C: chain ends. Non-standard residues stand in square brackets, D forms with d. Residues, ends and D or L forms follow the SMILES beside them. *: point of attachment. hPhe(3-Cl-4-CF3) = N[C@@H](CCc1ccc(C(F)(F)F)c(Cl)c1)C(=O)O; NMePhe(4-Me) = CN[C@@H](Cc1ccc(C)cc1)C(=O)O; NMePhe(4-F) = CN[C@@H](Cc1ccc(F)cc1)C(=O)O; NMeGly(cPent) = CN[C@H](C(=O)O)C1CCCC1; NMeCha = CN[C@@H](CC1CCCCC1)C(=O)O; NMeGly(cPr) = CN[C@H](C(=O)O)C1CC1; NMeChg = CN[C@H](C(=O)O)C1CCCCC1; NMeI = CC[C@H](C)[C@H](NC)C(=O)O; NMeD = CN[C@@H](CC(=O)O)C(=O)O; NMeL = CN[C@@H](CC(C)C)C(=O)O; hLeu = CC(C)CC[C@H](N)C(=O)O; NMeV = CN[C@H](C(=O)O)C(C)C; d(β3hA) = C[C@@H](N)CC(=O)O; NMeA = CN[C@@H](C)C(=O)O; Piperidide = C1CCN(*)CC1; Pyrrolidide = C1CCN(*)C1; dNMeA = CN[C@H](C)C(=O)O; Ac5c = NC1(C(=O)O)CCCC1; Sar = CNCC(=O)O

In the assay the target is T1, Kras and SOS1 (biotin-tagged human Kras loaded with GDP, His-tagged human SOS1) (Homo sapiens, UniProt P01116, G12D).
T1 construct: made in house; host or cells: E. coli (stated for Kras only)
T1 sequence (P01116 1-188 isoform P01116-2 G12D): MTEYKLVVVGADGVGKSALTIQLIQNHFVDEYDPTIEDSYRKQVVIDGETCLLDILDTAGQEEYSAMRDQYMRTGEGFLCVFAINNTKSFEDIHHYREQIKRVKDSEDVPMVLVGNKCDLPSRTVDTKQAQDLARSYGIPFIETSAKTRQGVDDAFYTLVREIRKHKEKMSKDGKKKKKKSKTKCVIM
Nature of the assay: Protein-protein interaction inhibition between Kras and SOS1 (KrasGl2D-SOS PPI) using AlphaScreen. Format: binding. The following applies: AlphaScreen; biotin-tagged human Kras loaded with GDP, His-tagged human SOS1; read-out: KRAS G12D-SOS PPI IC50. The gist of the method: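 Donor beads (nickel) hold His-SOS1; acceptor beads (streptavidin) hold biotin-Kras bound to GDP. Signal measured at 520-620 nm following 680 nm excitation.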
One may read the IC50 as the concentration that gives 50% inhibition. With `CC[C@H](C)[C@@H]1NC(=O)[C@H](CC(C)C)N(C)C(=O)C[C@@H](C(=O)N2CCCCC2)N(C)C(=O)[C@H]([C@@H](C)CC)N(C)C(=O)C2(CCCC2)NC(=O)[C@@H]2CCCN2C(=O)[C@H](CCc2ccc(C(F)(F)F)c(Cl)c2)NC(=O)CN(C)C(=O)[C@H](Cc2ccc(C)cc2)N(C)C(=O)CN(C)C(=O)CN(C)C1=O` [Compound 1649] ([NMeL]I[Sar][Sar][NMePhe(4-Me)][Sar][hPhe(3-Cl-4-CF3)]P[Ac5c][NMeI][NMeD]-Piperidide; lactam N-11), the IC50 worked out at 0.42 nM. For `CC(C)CC[C@@H]1NC(=O)[C@H](CC(C)C)N(C)C(=O)C[C@@H](C(=O)N2CCCCC2)N(C)C(=O)[C@H](C2CCCCC2)N(C)C(=O)C2(CCCC2)NC(=O)[C@@H]2CCCN2C(=O)[C@H](CCc2ccc(C(F)(F)F)c(Cl)c2)NC(=O)CN(C)C(=O)[C@H](CC2CCCCC2)N(C)C(=O)CN(C)C(=O)CN(C)C1=O` [Compound 1651] ([NMeL][hLeu][Sar][Sar][NMeCha][Sar][hPhe(3-Cl-4-CF3)]P[Ac5c][NMeChg][NMeD]-Piperidide; lactam N-11), the IC50 worked out at 4.9 nM. To `CC[C@H](C)[C@@H]1NC(=O)[C@H](C)N(C)C(=O)C[C@@H](C)NC(=O)[C@H](C(C)C)N(C)C(=O)C2(CCCC2)NC(=O)[C@@H]2CCCN2C(=O)[C@H](CCc2ccc(C(F)(F)F)c(Cl)c2)NC(=O)[C@@H](C)N(C)C(=O)[C@H](Cc2ccc(F)cc2)N(C)C(=O)CN(C)C(=O)CN(C)C1=O` [Compound 1655] (cyclo([Ac5c][NMeV][d(β3hA)][NMeA]I[Sar][Sar][NMePhe(4-F)][dNMeA][hPhe(3-Cl-4-CF3)]P)) belongs 85 nM. As to `CC[C@H](C)[C@@H]1NC(=O)[C@H](CC(C)C)N(C)C(=O)C[C@@H](C(=O)N(C)C)N(C)C(=O)[C@H](C2CCCC2)N(C)C(=O)C2(CCCC2)NC(=O)[C@@H]2CCCN2C(=O)[C@H](CCc2ccc(C(F)(F)F)c(Cl)c2)NC(=O)CN(C)C(=O)[C@H](CC2CCCCC2)N(C)C(=O)CN(C)C(=O)CN(C)C1=O` [Compound 1659] ([NMeL]I[Sar][Sar][NMeCha][Sar][hPhe(3-Cl-4-CF3)]P[Ac5c][NMeGly(cPent)][NMeD]-NMe2; lactam N-11), the IC50 is 0.38 nM. To `CC[C@H](C)[C@@H]1NC(=O)[C@H](CC(C)C)N(C)C(=O)C[C@@H](C(=O)N2CCCC2)N(C)C(=O)[C@H]([C@@H](C)CC)N(C)C(=O)C2(CCCC2)NC(=O)[C@@H]2CCCN2C(=O)[C@H](CCc2ccc(C(F)(F)F)c(Cl)c2)NC(=O)CN(C)C(=O)[C@H](CC2CCCCC2)N(C)C(=O)CN(C)C(=O)CN(C)C1=O` [Compound 1662] ([NMeL]I[Sar][Sar][NMeCha][Sar][hPhe(3-Cl-4-CF3)]P[Ac5c][NMeI][NMeD]-Pyrrolidide; lactam N-11) belongs 0.65 nM; to `CC[C@H](C)[C@@H]1NC(=O)[C@H](CC(C)C)N(C)C(=O)C[C@@H](C(=O)N2CCCCC2)N(C)C(=O)[C@H](C2CCCCC2)N(C)C(=O)C2(CCCC2)NC(=O)[C@@H]2CCCN2C(=O)[C@H](CCc2ccc(C(F)(F)F)c(Cl)c2)NC(=O)CN(C)C(=O)[C@H](C2CC2)N(C)C(=O)CN(C)C(=O)CN(C)C1=O` [Compound 1666] ([NMeL]I[Sar][Sar][NMeGly(cPr)][Sar][hPhe(3-Cl-4-CF3)]P[Ac5c][NMeChg][NMeD]-Piperidide; lactam N-11), 1.1 nM; to `CC[C@H](C)[C@@H]1NC(=O)[C@H](C)N(C)C(=O)C[C@@H](C)NC(=O)[C@H](C(C)C)N(C)C(=O)C2(CCCC2)NC(=O)[C@@H]2CCCN2C(=O)[C@H](CCc2ccc(C(F)(F)F)c(Cl)c2)NC(=O)[C@H]2CCCN2C(=O)[C@H](Cc2ccc(F)cc2)N(C)C(=O)[C@@H]2CCCN2C(=O)CN(C)C1=O` [Compound 1667] (cyclo([Ac5c][NMeV][d(β3hA)][NMeA]I[Sar]P[NMePhe(4-F)][dP][hPhe(3-Cl-4-CF3)]P)), 13 nM.

Source of the values: US12371454B2, “Cyclic peptide compound having Kras inhibitory action” (priority 2019, dated 2025).
